Experimental findings from DBAASP are described below.

Usually MIC stands for the lowest concentration found to suppress growth. Low values mean greater potency, high ones weaker potency.

≈ marks a conversion by molar mass, not a printed value.

Among the test systems are Escherichia coli UB1005; Escherichia coli KF111; Escherichia coli KF130; Escherichia coli BL21.
What all share (assay): ≥ marks a high value that may be exact or a test limit, other limits are often not marked, values filed in µg/mL are converted to µM
Experiment [1] relates to Enterococcus faecium BCRC 15B0132.
Experiment [2] has as its system Staphylococcus aureus VISA1.
The test system of experiment [3] is Staphylococcus aureus ATCC 25923.
Experiment [4] concerns Micrococcus luteus ATCC 10240.
For experiment [5], the system named is Pseudomonas aeruginosa ATCC 27853.
Experiment [6] has as its system Staphylococcus epidermidis ATCC 12228.
Experiment [7] concerns Staphylococcus aureus VRSA1.
Experiment [8] has as its system Klebsiella pneumoniae NCIMB 9111.
Experiment [9] relates to Candida albicans ATCC 24433.
The test system of experiment [10] is Enterococcus faecalis ATCC 29212.
Experiment [11] concerns Candida albicans ATCC 10259.
Experiment [12] relates to Staphylococcus aureus VRSA2.
The test system of experiment [13] is Staphylococcus aureus VISA3.
The test system of experiment [14] is Lactobacillus acidophilus NCTC 1723.
Experiment [15] deals with Escherichia coli ATCC 27325.
The subject of experiment [16] is Pseudomonas aeruginosa ATCC 15692.
In experiment [17] the test system is Enterococcus faecalis NCTC 12697.
Experiment [18] concerns Escherichia coli ATCC 25922.
Experiment [19] concerns Streptococcus mutans NCTC 10449.
The subject of experiment [20] is Cryptococcus neoformans ATCC 34881.
Experiment [21] concerns Pseudomonas putida ATCC 17426.
Experiment [22] deals with Streptococcus mutans ATCC 25175.
The test system of experiment [23] is Saccharomyces cerevisiae ATCC 44774.
Experiment [24] deals with Salmonella enterica subsp. enterica serovar Enteritidis ATCC 13076.
The test system of experiment [25] is Candida albicans ATCC 10231.
Experiment [26] relates to Staphylococcus aureus ATCC 15752.
Experiment [27] deals with Bacillus subtilis ATCC 62037.
In experiment [28] the test system is Staphylococcus epidermidis.
In experiment [29] the test system is Pseudomonas aeruginosa H374.
In experiment [30] the test system is Pseudomonas aeruginosa K799.
Experiment [31] concerns Salmonella enterica subsp. enterica serovar Typhimurium ATCC 14028s.
In experiment [32] the test system is Pseudomonas aeruginosa H744.
In experiment [33] the test system is Salmonella enterica subsp. enterica serovar Choleraesuis CVCC 2140.
Experiment [34] deals with Staphylococcus aureus ATCC 29213.
In experiment [35] the test system is Pasteurella multocida ATCC 6529.
Experiment [36] relates to Bacillus cereus ATCC 9193.

Regarding `CC(=O)N[C@@H](C)C(=O)N[C@@H](CCCCN)C(=O)N[C@@H](CCCN=C(N)N)C(=O)N[C@@H](Cc1cnc[nH]1)C(=O)N[C@@H](Cc1cnc[nH]1)C(=O)NCC(=O)N[C@@H](Cc1ccc(O)cc1)C(=O)N[C@@H](CCCCN)C(=O)N[C@@H](CCCN=C(N)N)C(=O)N[C@@H](CCCCN)C(=O)N[C@@H](Cc1ccccc1)C(=O)N[C@@H](Cc1cnc[nH]1)C(N)=O` [AKRHHGYKRKFH], the MIC in [1] was not below 40.9 µM; in [2] it was not below 40.9 µM; in experiment [3], 20.8 µM (≈ 33.4 µg/mL); in experiment [4], not below 47.9 µM; in experiment [5], 320 µM (≈ 513 µg/mL); in experiment [6] it was 20.8 µM (≈ 33.4 µg/mL). Besides, the MIC in experiment [7] was not below 40.9 µM; in [8], not below 320 µM; in [9] it was not below 47.9 µM; in experiment [10], 10.2 µM (≈ 16.4 µg/mL); in experiment [11], not below 47.9 µM; in [12] it was not below 40.9 µM. In experiment [13], this compound displayed a minimum inhibitory concentration (MIC) not below 40.9 µM.
For the compound `CC[C@H](C)[C@H](NC(=O)[C@H](CO)NC(=O)[C@H](CC(N)=O)NC(=O)[C@H](CC(C)C)NC(=O)[C@H](Cc1ccc(O)cc1)NC(=O)[C@H](CCCCN)NC(=O)[C@H](CCCCN)NC(=O)[C@@H](NC(=O)[C@H](C)NC(=O)[C@H](CCSC)NC(=O)[C@H](CCC(N)=O)NC(=O)[C@H](CCCCN)NC(=O)[C@H](CCCN=C(N)N)NC(=O)[C@H](CC(C)C)NC(=O)[C@H](CCCN=C(N)N)NC(=O)[C@@H](NC(=O)[C@H](Cc1ccc(O)cc1)NC(=O)[C@H](CC(N)=O)NC(=O)[C@H](CC(=O)O)NC(=O)[C@@H](NC(=O)[C@H](Cc1ccccc1)NC(=O)[C@@H](NC(=O)[C@H](C)NC(=O)[C@H](CC(=O)O)NC(=O)[C@H](CO)NC(=O)[C@@H](N)Cc1cnc[nH]1)C(C)C)[C@@H](C)O)[C@@H](C)O)C(C)C)C(=O)N[C@@H](CC(C)C)C(=O)N[C@@H](CC(N)=O)C(N)=O` [HSDAVFTDNYTRLRKQMAVKKYLNSILN], the MIC in [14] is not below 150 µM; in [15], not below 150 µM; in [3] it was more than 150 µM; in experiment [16], not below 75.1 µM; in [5], 1.23 µM (≈ 4.1 µg/mL); in [17] it was not below 150 µM. The MIC in experiment [18] is 1.56 µM (≈ 5.2 µg/mL); in experiment [19] it was not below 45.3 µM.
On to `CC[C@H](C)[C@H](NC(=O)[C@@H]1CCCN1C(=O)[C@H](Cc1c[nH]c2ccccc12)NC(=O)[C@H](CCC(N)=O)NC(=O)[C@H](CCCCN)NC(=O)[C@@H](NC(=O)[C@@H](NC(=O)[C@@H](N)CCCCN)C(C)C)C(C)C)C(=O)NCC(=O)N[C@@H](CCCCN)C(=O)N[C@H](C(=O)N[C@H](C(=O)N[C@@H](CCCCN)C(=O)N[C@@H](CCCCN)C(=O)N[C@H](C(=O)N[C@H](C(=O)N[C@@H](CCCCN)C(=O)N[C@@H](CCCCN)C(=O)N[C@H](C(=O)N[C@H](C(=O)N[C@@H](CCCCN)C(=O)O)C(C)C)C(C)C)C(C)C)C(C)C)C(C)C)C(C)C` [KVVKQWPIGKVVKKVVKKVVK], for which the MIC in experiment [20] worked out at 0.827 µM (≈ 2 µg/mL); in experiment [15], 0.827 µM (≈ 2 µg/mL); in experiment [21], 0.413 µM (≈ 1 µg/mL); in experiment [22], 0.827 µM (≈ 2 µg/mL); in experiment [23], 0.827 µM (≈ 2 µg/mL); in experiment [24], 0.827 µM (≈ 2 µg/mL). For the same compound, the MIC was 0.413 µM (≈ 1 µg/mL) in [25], 0.413 µM (≈ 1 µg/mL) in experiment [26] and 0.827 µM (≈ 2 µg/mL) in experiment [27].
In the case of `CC[C@H](C)[C@H](NC(=O)[C@@H]1CCCN1C(=O)[C@H](CCCCN)NC(=O)[C@H](CC(C)C)NC(=O)[C@H](C)NC(=O)[C@@H](NC(=O)[C@H](Cc1ccc(O)cc1)NC(=O)[C@H](CC(C)C)NC(=O)[C@@H](NC(=O)[C@@H](NC(=O)[C@H](CCCN=C(N)N)NC(=O)[C@H](C)NC(=O)[C@@H]1CCCN1C(=O)[C@H](CO)NC(=O)[C@H](CCCCN)NC(=O)[C@H](Cc1ccccc1)NC(=O)[C@@H](NC(=O)[C@H](CCCCN)NC(=O)[C@H](CC(C)C)NC(=O)[C@H](Cc1ccccc1)NC(=O)[C@H](CO)NC(=O)[C@H](CCCCN)NC(=O)[C@H](Cc1c[nH]c2ccccc12)NC(=O)[C@@H](N)CCCCN)[C@@H](C)O)[C@@H](C)O)C(C)C)[C@@H](C)O)C(=O)N[C@@H](CO)C(=O)N[C@@H](CO)C(=O)O` [KWKSFLKTFKSPARTVLYTALKPISS], the MIC in experiment [28] was determined as 21.3 µM (≈ 64 µg/mL); in [29] it was 5.34 µM (≈ 16 µg/mL); in experiment [30], 10.7 µM (≈ 32 µg/mL); with Escherichia coli UB1005 it was 0.334 µM (≈ 1 µg/mL); against Escherichia coli KF111 it was 0.667 µM (≈ 2 µg/mL); against Escherichia coli KF130, 0.667 µM (≈ 2 µg/mL). Besides, the MIC in experiment [31] and in experiment [32] was 5.34 µM (≈ 16 µg/mL) in each case.
With `CC(C)C[C@@H]1NC(=O)CNC(=O)CNC(=O)[C@H](Cc2cnc[nH]2)NC(=O)[C@@H]2CSSC[C@@H]3NC(=O)[C@H](Cc4ccccc4)NC(=O)[C@H](CC(N)=O)NC(=O)CNC(=O)[C@H](CCC(N)=O)NC(=O)[C@H](CO)NC(=O)[C@H](CCCN=C(N)N)NC(=O)[C@@H](NC(=O)[C@H](C)NC(=O)[C@H](C)NC(=O)[C@@H](NC(=O)[C@H](CC(=O)O)NC(=O)[C@H](C)NC(=O)[C@H](Cc4ccccc4)NC(=O)[C@@H]4CCCN4C(=O)[C@H](C)NC(=O)[C@H](CC(=O)O)NC(=O)[C@H](C)NC(=O)[C@H](CO)NC(=O)CNC(=O)[C@@H]4CCCN4C(=O)[C@H](C)NC(=O)[C@H](C)NC(=O)[C@H](CCC(N)=O)NC(=O)[C@H](Cc4ccccc4)NC(=O)[C@H](CC(C)C)NC(=O)[C@H](Cc4ccccc4)NC(=O)[C@H](CC(C)C)NC(=O)[C@H](CC(C)C)NC(=O)[C@@H](N)C(C)C)[C@@H](C)O)CSSC[C@H](NC(=O)[C@H](CC(N)=O)NC(=O)[C@H](CC(C)C)NC1=O)C(=O)N[C@H](C(=O)N[C@@H](C)C(=O)N[C@@H](CCCCN)C(=O)O)CSSC[C@H](NC(=O)[C@H](C)NC(=O)CNC(=O)[C@H](C)NC(=O)[C@H](CCCN=C(N)N)NC3=O)C(=O)N1CCC[C@H]1C(=O)N1CCC[C@H]1C(=O)N[C@@H]([C@@H](C)O)C(=O)N[C@@H](Cc1ccccc1)C(=O)N[C@@H](C)C(=O)N[C@@H](C)C(=O)N[C@@H](CO)C(=O)NCC(=O)N[C@@H](CO)C(=O)N2` [VLLFLFQAAPGSADAPFADTAACRSQGNFCRAGACPPTFAASGSCHGGLLNCCAK], the MIC is not below 73.2 µM in [33]; not below 57.4 µM against Escherichia coli BL21; 3.66 µM in experiment [34]; 14.4 µM in [35]; 0.97 µM in [36].
